Test results reported in ChEMBL document CHEMBL1154811, “Dehydroconicasterol and aurantoic acid, a chlorinated polyene derivative, from the Indonesian sponge Theonella swinhoei” (J Nat Prod, 2009).

Key:
Assay type in all cases: functional, cell-based
[1] = test system: C6; test: Cytotoxicity against rat C6 cells
[2] = test system: HeLa; test: Cytotoxicity against human HeLa cells
[3] = test system: H9c2; test: Cytotoxicity against rat H9c2 cells

Measured: IC50

C=C(CC[C@@H](C)[C@H]1CCC2=C3CCC4C(=C)[C@@H](O)CC[C@]4(C)[C@H]3CC[C@@]21C)C(C)C (stereo not given in full) [DEHYDROCONICASTEROL]
> 70 µM: all assays above

C/C(Cl)=C/C=C/C=C/C=C/C=C/C(=O)O [AURANTOIC ACID]
> 70 µM: all assays above

C/C(Cl)=C/C=C/C=C/C=C/C=C/C(O)=C1\C(=O)[C@H](CC(N)=O)N([C@@H]2OC[C@@H](O)[C@H](O)[C@H]2O)C1=O [AURANTOSIDE G]
> 70 µM: all assays above

C=C1C2CCC3=C4CC[C@H]([C@H](C)CC[C@H](CC)C(C)C)[C@@]4(C)CC[C@@H]3[C@@]2(C)CC[C@@H]1O (stereo not given in full) [THEONELLASTEROL]
> 70 µM: all assays above

C=C1C2CCC3=C4CC[C@H]([C@H](C)CC[C@@H](C)C(C)C)[C@@]4(C)CC[C@@H]3[C@@]2(C)CC[C@@H]1O (stereo not given in full) [CONICASTEROL]
> 70 µM: all assays above
